From patent publication US9334289B2, “Cephem compound having catechol or pseudo-catechol structure” (SHIONOGI & CO., LTD., priority 2011, dated 2016)
In brackets after ≈: the same amount, converted by molar mass.

Legend:
Test in all cases: MIC, CLSI broth microdilution, Test Example 2
Assay type in all cases: cell-based
[1] = test system: A. baumannii SR01331; conditions: PER-1, OXA-23.51 ESBL- & OXA-type carbapenemase producing strain, cation-adjusted Iso-Sensitest broth containing human Apo-transferrin, 5×10^5 cfu/mL; for MIC: Acinetobacter baumannii, SR01331, read-out: Minimum Inhibitory Concentration (MIC) A. baumannii SR01331
Experimental: (§1) Measurement of Minimum Inhibitory Concentration (MIC: μg/mL) was conducted according to CLSI (Clinical and Laboratory Standards Institute) method, and the amount of bacteria for inoculation was 5×10^5 cfu/mL, and cation-adjusted Iso-Sensitest broth containing human Apo-transferrin was used as a test medium, and the experiment was conducted using broth microdilution method.

[2] = test system: E. cloacae NCTC13464; conditions: CTX-M group 9 ESBL producing strain, cation-adjusted Iso-Sensitest broth containing human Apo-transferrin, 5×10^5 cfu/mL; for MIC: Enterobacter cloacae, NCTC13464, read-out: Minimum Inhibitory Concentration (MIC) E. cloacae NCTC 13464
Experimental: as §1

[3] = test system: E. coli ATCCBAA-196; conditions: TEM-10 ESBL producing strain, cation-adjusted Iso-Sensitest broth containing human Apo-transferrin, 5×10^5 cfu/mL; for MIC: Escherichia coli, ATCCBAA196, read-out: Minimum Inhibitory Concentration (MIC) E. coli ATCC BAA-196
Experimental: as §1

[4] = test system: E. coli ATCCBAA-200; conditions: SHV-4 ESBL producing strain, cation-adjusted Iso-Sensitest broth containing human Apo-transferrin, 5×10^5 cfu/mL; for MIC: Escherichia coli, ATCCBAA200, read-out: Minimum Inhibitory Concentration (MIC) E. coli ATCC BAA-200
Experimental: as §1

[5] = test system: E. coli SR01337; conditions: TEM-1 ESBL producing strain, cation-adjusted Iso-Sensitest broth containing human Apo-transferrin, 5×10^5 cfu/mL; for MIC: Escherichia coli, SR01337, read-out: Minimum Inhibitory Concentration (MIC) E. coli SR01337
Experimental: as §1

[6] = test system: K. pneumoniae ATCC700603; conditions: SHV18 ESBL producing strain, cation-adjusted Iso-Sensitest broth containing human Apo-transferrin, 5×10^5 cfu/mL; for MIC: Klebsiella pneumoniae, ATCC700603, read-out: Minimum Inhibitory Concentration (MIC) K. pneumoniae ATCC 700603
Experimental: as §1

[7] = test system: P. aeruginosa SR01332; conditions: VIM-11 MBL producing strain (carbapenem resistance strain), cation-adjusted Iso-Sensitest broth containing human Apo-transferrin, 5×10^5 cfu/mL; for MIC: Pseudomonas aeruginosa, SR01332, read-out: Minimum Inhibitory Concentration (MIC) P. aeruginosa SR01332
Experimental: as §1

[8] = test system: P. aeruginosa SR01335; conditions: VIM-1 like MBL producing strain (carbapenem resistance strain), cation-adjusted Iso-Sensitest broth containing human Apo-transferrin, 5×10^5 cfu/mL; for MIC: Pseudomonas aeruginosa, SR01335, read-out: Minimum Inhibitory Concentration (MIC) P. aeruginosa SR01335
Experimental: as §1

Compound	MIC [1] [µg/mL]	MIC [2] [µg/mL]	MIC [3] [µg/mL]	MIC [4] [µg/mL]	MIC [5] [µg/mL]	MIC [6] [µg/mL]	MIC [7] [µg/mL]	MIC [8] [µg/mL]	Minimum Inhibitory Concentration (MIC) A. baumannii SR01331 [1] [µg/mL]	Minimum Inhibitory Concentration (MIC) E. cloacae NCTC 13464 [2] [µg/mL]	Minimum Inhibitory Concentration (MIC) E. coli ATCC BAA-196 [3] [µg/mL]	Minimum Inhibitory Concentration (MIC) E. coli ATCC BAA-200 [4] [µg/mL]	Minimum Inhibitory Concentration (MIC) E. coli SR01337 [5] [µg/mL]	Minimum Inhibitory Concentration (MIC) K. pneumoniae ATCC 700603 [6] [µg/mL]	Minimum Inhibitory Concentration (MIC) P. aeruginosa SR01332 [7] [µg/mL]	Minimum Inhibitory Concentration (MIC) P. aeruginosa SR01335 [8] [µg/mL]
C[N+](C)(CCNC(=O)c1ccc(O)c(O)c1Cl)CC1=C(c2nnn[nH]2)N2C(=O)[C@@H](NC(=O)/C(=N\O[C@@H](CC(=O)O)C(=O)[O-])c3nc(N)sc3Cl)[C@H]2SC1 [Compound I-101]	0.25 (≈ 0.307 µM)	0.063 (≈ 0.0773 µM)	≤ 0.031	0.063 (≈ 0.0773 µM)	≤ 0.031	0.125 (≈ 0.153 µM)	2 (≈ 2.46 µM)	1 (≈ 1.23 µM)								
Nc1nc(/C(=N/O[C@@H](CC(=O)[O-])C(=O)[O-])C(=O)N[C@@H]2C(=O)N3C(c4nnn[n-]4)=C(C[N+]4(CCNC(=O)c5ccc(O)c(O)c5Cl)CCCCC4)CS[C@H]23)cs1.[Na+].[Na+] [Compound I-67]	0.25	0.063	≤ 0.031	0.063	≤ 0.031	≤ 0.031	2	2								
CC(C)(O/N=C(\C(=O)N[C@@H]1C(=O)N2C(c3nnn[n-]3)=C(C[n+]3ccc(CNC(=O)c4ccc(O)c(O)c4Cl)cc3)CS[C@H]12)c1nc(N)sc1Cl)C(=O)[O-].[Na+] [Compound I-31]	0.5	0.125	0.063	0.25	≤ 0.031	0.125	1	1								
CC(C)(O/N=C(\C(=O)N[C@@H]1C(=O)N2C(c3nnn[n-]3)=C(C[n+]3cccc4c3CCCN4C(=O)c3ccc(O)c(O)c3Cl)CS[C@H]12)c1nc(N)sc1Cl)C(=O)[O-].[Na+] [Compound I-28]	0.5	0.5	0.125	0.5	≤ 0.031	0.125	1	1								
Nc1nc(/C(=N/O[C@@H](CC(=O)[O-])C(=O)[O-])C(=O)N[C@@H]2C(=O)N3C(c4nnn[n-]4)=C(C[n+]4ccc5cc(O)c(O)cc5c4)CS[C@H]23)cs1.[Na+].[Na+] [Compound I-65]	0.125	≤ 0.031	≤ 0.031	≤ 0.031	≤ 0.031	≤ 0.031	0.25	0.5								
Cc1cc2cc(O)c(O)cc2c[n+]1CC1=C(c2nnn[n-]2)N2C(=O)[C@@H](NC(=O)/C(=N\OC(C)(C)C(=O)[O-])c3csc(N)n3)[C@H]2SC1.[Na+] [Compound I-121]	0.125	0.063	≤ 0.031	≤ 0.031	≤ 0.031	≤ 0.031	1	0.5								
CC(C)(O/N=C(\C(=O)N[C@@H]1C(=O)N2C(c3nnn[nH]3)=C(C[N+]3(CCNC(=O)c4ccc(O)c(O)c4F)CCCC3)CS[C@H]12)c1nsc(N)n1)C(=O)[O-] [Compound I-107]	0.5 (≈ 0.657 µM)	0.063 (≈ 0.0828 µM)	0.25 (≈ 0.329 µM)	0.5 (≈ 0.657 µM)	0.063 (≈ 0.0828 µM)	0.125 (≈ 0.164 µM)	2 (≈ 2.63 µM)	2 (≈ 2.63 µM)								
CC(C)(O/N=C(\C(=O)N[C@@H]1C(=O)N2C(c3nnn[n-]3)=C(C[n+]3ccc4cc(O)c(O)cc4c3)CS[C@H]12)c1nsc(N)n1)C(=O)[O-].[Na+] [Compound I-113]	0.125	≤ 0.031	0.125	0.25	≤ 0.031	0.125	0.5	0.25								
CC(C)(O/N=C(\C(=O)N[C@@H]1C(=O)N2C(c3nnn[nH]3)=C(C[N+]3(CCNC(=O)c4cc(O)c(O)c(F)c4)CCCC3)CS[C@H]12)c1nc(N)sc1Cl)C(=O)[O-] [Compound I-104]	0.5 (≈ 0.63 µM)	0.125 (≈ 0.157 µM)	≤ 0.031	0.063 (≈ 0.0793 µM)	≤ 0.031	0.125 (≈ 0.157 µM)	4 (≈ 5.04 µM)	2 (≈ 2.52 µM)								
CC(C)(O/N=C(\C(=O)N[C@@H]1C(=O)N2C(c3nnn[n-]3)=C(C[N+]3(C)[C@@H]4CC[C@H]3CC(NC(=O)c3cc(O)c(O)c(F)c3)C4)CS[C@H]12)c1nc(N)sc1Cl)C(=O)[O-].[Na+] (stereo partly drawn) [Compound I-33]	0.5	0.25	0.063	0.25	0.063	0.25	2	4								
CC(C)(O/N=C(\C(=O)N[C@@H]1C(=O)N2C(c3nnn[n-]3)=C(C[N+]3(CCNC(=O)c4ccc(O)c(O)c4Cl)CCCC3)CS[C@H]12)c1csc(N)n1)C(=O)[O-].[Na+] [Compound I-82]	0.5	0.125	0.125	0.25	≤ 0.031	0.125	4	1								
CC(C)(O/N=C(\C(=O)N[C@@H]1C(=O)N2C(c3nnn[nH]3)=C(C[N@+]34CCC[C@H]3CN(C(=O)c3cc(O)c(O)c(F)c3)CC4)CS[C@H]12)c1nsc(N)n1)C(=O)[O-] [Compound I-111]	1 (≈ 1.29 µM)	0.25 (≈ 0.323 µM)	1 (≈ 1.29 µM)		0.125 (≈ 0.162 µM)	0.5 (≈ 0.647 µM)	2 (≈ 2.59 µM)	2 (≈ 2.59 µM)								
Nc1nc(/C(=N/O[C@@H](CC(=O)[O-])C(=O)[O-])C(=O)N[C@@H]2C(=O)N3C(c4nnn[n-]4)=C(C[N+]45CCC[C@H]4CN(C(=O)c4ccc(O)c(O)c4Cl)CC5)CS[C@H]23)cs1.[Na+].[Na+] (stereo partly drawn) [Compound I-57]	0.5	0.25	0.063	0.25	0.063	0.125	8	1								
Cc1cc2cc(O)c(O)cc2c[n+]1CC1=C(c2nnn[nH]2)N2C(=O)[C@@H](NC(=O)/C(=N\OC(C)(C)C(=O)O)c3nsc(N)n3)[C@H]2SC1.[Na+] [Compound I-109]	0.5	0.125	0.5	1	≤ 0.031	0.25	0.5	1								
CC(C)(O/N=C(\C(=O)N[C@@H]1C(=O)N2C(c3nnn[nH]3)=C(C[N@+]34CCC[C@H]3CN(C(=O)c3ccc(O)c(O)c3Cl)CC4)CS[C@H]12)c1nc(N)sc1Cl)C(=O)[O-] [Compound I-105]	2 (≈ 2.43 µM)	0.25 (≈ 0.304 µM)	0.063 (≈ 0.0766 µM)	0.25 (≈ 0.304 µM)	≤ 0.031	0.25 (≈ 0.304 µM)	4 (≈ 4.86 µM)	2 (≈ 2.43 µM)								
Nc1nc(C(=NOC(CC(=O)[O-])C(=O)[O-])C(=O)NC2C(=O)N3C(c4nnn[n-]4)=C(C[N+]45CCC(CNC(=O)c6ccc(O)c(O)c6Cl)(CC4)CC5)CSC23)c(Cl)s1.[Na+].[Na+] (stereo not drawn) [Compound I-94]									0.5	0.5	0.063	0.5	0.063	0.5	2	1
CC(C)(O/N=C(\C(=O)N[C@@H]1C(=O)N2C(c3nnn[nH]3)=C(C[N+]3(C)CCN(C(=O)c4ccc(O)c(O)c4Cl)CC3)CS[C@H]12)c1nsc(N)n1)C(=O)O.[Na+] [Compound I-110]	1	0.25	0.5		0.063	0.25	8	0.5								
CC(C)(O/N=C(\C(=O)N[C@@H]1C(=O)N2C(c3nnn[nH]3)=C(C[N@+]34CCC[C@H]3CN(C(=O)c3ccc(O)c(O)c3Cl)CC4)CS[C@H]12)c1nsc(N)n1)C(=O)[O-] [Compound I-112]	1 (≈ 1.27 µM)	0.25 (≈ 0.317 µM)	0.5 (≈ 0.634 µM)		0.063 (≈ 0.0798 µM)	0.5 (≈ 0.634 µM)	4 (≈ 5.07 µM)	2 (≈ 2.53 µM)								
